Several values for one entry are separate records, joined by “and”; a condition that tells them apart may be missing. Equal values may be shown once.
Columns and labels:
Type in all cases: cell-based
Enterobacter aerogenes = assay: Survival of organisms in inoculated urine with preservative components, 24 hours at room temperature; set-up: key to Survival value enae: 24 h count / control count; 1 = no change, 0.1 = 1-log decrease; conditions: for Concentration with cidal activity against Enterobacter aerogenes: component alone
Procedure: (§1) Antimicrobial activity for each active ingredient in the Chemistat I formulations was first determined for representative organisms listed in Table I. A culture for each organism of interest on blood agar was incubated at 36° C. overnight. About two to three colonies of the organism were transferred via sterile swab from the blood agar culture into a 5 ml Mueller-Hinton broth culture tube, which was then incubated on a rotator for about two to three hours at 36° C. Using a spectrophotometer set at a wavelength of 630 nm, the turbidity of broth culture was adjusted by the addition of Mueller-Hinton broth to an optical density equivalent to approximately 1×10^8 colony forming units (cfu)/ml to form an inoculum solution. An aliquot of the inoculum solution was plated onto blood agar to determine the actual control organism count. For each component listed in Table II, the component was added to filter-sterilized pooled normal urine at the concentration given in Table II to form a test sample. The test sample was then inoculated with an aliquot of the inoculum solution providing a final organism count of approximately 1×10^6 cfu/ml of test sample. Immediately after thorough mixing, an aliquot of the test sample was removed and serially diluted in PBS, and serial dilutions were plated onto blood agar to determine the Time Zero organism count. The inoculated plates were incubated at 36° C., and organism counts were recorded after 18-24 hours. After incubating the test sample for 24 hours at room temperature, an aliquot of the test sample was again removed, serially diluted in PBS and plated onto blood agar. After incubating for 18-24 hours at 36° C., organism counts were obtained. The organism count obtained after 24 hours incubation at room temperature was divided by the control organism count to provide the survival value of each organism as recorded in Table II. With respect to changes in microbial count, a survival value of 1 represents no change; a survival value of 0.1 indicates a 1-log decrease; a survival value of 10 indicates a 1-log increase; and a survival value of 0.000 represents a decrease of greater than or equal to 3-logs. In comparison, the lower the survival value, the greater the component's capacity for controlling organism growth.

[1] = system: microorganisms of interest; assay: Antimicrobial (cidal) activity against the organisms of interest taken together; conditions: component alone
Procedure: as §1, with “With respect to changes in microbial count, a survival value of 1 represents no change; a survival value of 0.1 indicates a 1-log decrease; a survival value of 10 indicates a 1-log increase; and a survival value of 0.000 represents a decrease of greater than or equal to 3-logs. In comparison, the lower the survival value, the greater the component's capacity for controlling organism growth.” left out

Enterococcus faecalis = assay: Survival of organisms in inoculated urine with preservative components, 24 hours at room temperature; set-up: key to Survival value enfa: 24 h count / control count; 1 = no change, 0.1 = 1-log decrease; conditions: for Concentration with cidal activity against Enterococcus faecalis: component alone
Procedure: as §1

Escherichia coli = assay: as above; set-up: key to Survival value esco: 24 h count / control count; 1 = no change, 0.1 = 1-log decrease; conditions: for Concentration with cidal activity against Escherichia coli: component alone
Procedure: as §1

Klebsiella pneumoniae = assay: as above
Procedure: as §1

Pseudomonas aeruginosa = assay: as above; conditions: for Concentration with cidal activity against Pseudomonas aeruginosa: component alone
Procedure: as §1

Proteus vulgaris = assay: as above
Procedure: as §1

Candida albicans = assay: as above; set-up: key to Survival value caal: 24 h count / control count; 1 = no change, 0.1 = 1-log decrease; conditions: for Concentration with cidal activity against Candida albicans: component alone
Procedure: as §1

[2] = single component at 0.005 mg/ml
[3] = single component at 0.0075 mg/ml

Compound: CC=Cc1ccc(O)c(OC)c1 [Isoeugenol, isoeugenol]
- Concentration with cidal activity against Enterobacter aerogenes (Enterobacter aerogenes): 2.5 μl/ml
- Survival value enae (Enterobacter aerogenes; single component at 1.5 μl/ml): tntc
- Survival value enae (Enterobacter aerogenes; single component at 2.5 μl/ml): 0.000
- Concentration required for cidal antimicrobial action for many organisms of interest [1]: greater than 1.5 μg/ml
- Concentration with cidal activity against Enterococcus faecalis (Enterococcus faecalis): > 4.6 μl/ml
- Survival value enfa (Enterococcus faecalis; single component at 0.2 μl/ml): tntc
- Survival value enfa (Enterococcus faecalis; single component at 0.5 μl/ml): tntc
- Survival value enfa (Enterococcus faecalis; single component at 1.5 μl/ml): tntc
- Survival value enfa (Enterococcus faecalis; single component at 2.5 μl/ml): 0.750
- Survival value enfa (Enterococcus faecalis; single component at 4.6 μl/ml): 0.460
- Concentration with cidal activity against Escherichia coli (Escherichia coli): 1.5 μl/ml
- Survival value esco (Escherichia coli; single component at 0.2 μl/ml): tntc
- Survival value esco (Escherichia coli; single component at 0.5 μl/ml): tntc
- Survival value esco (Escherichia coli; single component at 1.5 μl/ml): 0.000
- Survival value esco (Escherichia coli; single component at 2.5 μl/ml): 0.000
- Survival value esco (Escherichia coli; single component at 4.6 μl/ml): 0.000
- Survival value klpn (Klebsiella pneumoniae; single component at 0.2 μl/ml): tntc
- Survival value psae (Pseudomonas aeruginosa; single component at 0.2 μl/ml): tntc
- Survival value psae (Pseudomonas aeruginosa; single component at 1.5 μl/ml): tntc
- Survival value psae (Pseudomonas aeruginosa; single component at 2.5 μl/ml): 0.398
- Survival value prvu (Proteus vulgaris; single component at 0.2 μl/ml): tntc
- Concentration with cidal activity against Candida albicans (Candida albicans): 2.5 μl/ml
- Survival value caal (Candida albicans; single component at 0.2 μl/ml): 0.160
- Survival value caal (Candida albicans; single component at 0.5 μl/ml): 2.786
- Survival value caal (Candida albicans; single component at 1.5 μl/ml): 0.152
- Survival value caal (Candida albicans; single component at 2.5 μl/ml): 0.000
- Survival value caal (Candida albicans; single component at 4.6 μl/ml): 0.000

Compound: [H]/N=C(\N/C(=N/[H])NCCCCCCNC(=N)NC(=N)Nc1ccc(Cl)cc1)Nc1ccc(Cl)cc1 [Chlorhexidine, chlorhexidine, reference compound]
- Concentration with cidal activity against Enterobacter aerogenes (Enterobacter aerogenes): 0.01 mg/mL
- Survival value enae (Enterobacter aerogenes; [2]): tntc
- Survival value enae (Enterobacter aerogenes; [3]): 6.098
- Survival value enae (Enterobacter aerogenes; single component at 0.01 mg/ml): 0.000
- Survival value enae (Enterobacter aerogenes; single component at 0.05 mg/ml): 0.000
- Concentration required for cidal action [1]: greater than or equal to 0.01 mg/ml
- Concentration with cidal activity against Enterococcus faecalis (Enterococcus faecalis): 0.05 to 0.8 mg/mL
- Survival value enfa (Enterococcus faecalis; [2]): 1.115
- Survival value enfa (Enterococcus faecalis; [3]): 0.598
- Survival value enfa (Enterococcus faecalis; single component at 0.01 mg/ml): 0.520
- Survival value enfa (Enterococcus faecalis; single component at 0.02 mg/ml): 0.179 and 0.141
- Survival value enfa (Enterococcus faecalis; single component at 0.05 mg/ml): 0.000
- Survival value enfa (Enterococcus faecalis; single component at 0.1 mg/ml): 0.561
- Survival value enfa (Enterococcus faecalis; single component at 0.8 mg/ml): 0.000
- Concentration with cidal activity against Escherichia coli (Escherichia coli): 0.0075 mg/mL
- Survival value esco (Escherichia coli; [2]): 0.003
- Survival value esco (Escherichia coli; [3]): 0.000
- Survival value esco (Escherichia coli; single component at 0.01 mg/ml): 0.000
- Survival value esco (Escherichia coli; single component at 0.02 mg/ml): 0.000
- Survival value esco (Escherichia coli; single component at 0.05 mg/ml): 0.000
- Survival value esco (Escherichia coli; single component at 0.1 mg/ml): 0.000
- Survival value esco (Escherichia coli; single component at 0.8 mg/ml): 0.000
- Concentration with cidal activity against Klebsiella pneumoniae (Klebsiella pneumoniae; component alone): 0.02 mg/mL
- Survival value klpn (Klebsiella pneumoniae; single component at 0.02 mg/ml): 0.000
- Concentration with cidal activity against Pseudomonas aeruginosa (Pseudomonas aeruginosa): > 0.05 mg/mL
- Survival value psae (Pseudomonas aeruginosa; [2]): tntc
- Survival value psae (Pseudomonas aeruginosa; [3]): 4.049
- Survival value psae (Pseudomonas aeruginosa; single component at 0.01 mg/ml): 0.277
- Survival value psae (Pseudomonas aeruginosa; single component at 0.05 mg/ml): 0.046
- Concentration with cidal activity against Proteus vulgaris (Proteus vulgaris; component alone): 0.02 mg/mL
- Survival value prvu (Proteus vulgaris; single component at 0.02 mg/ml): 0.000
- Concentration with cidal activity against Candida albicans (Candida albicans): 0.0075 mg/mL
- Survival value caal (Candida albicans; [2]): 5.308
- Survival value caal (Candida albicans; [3]): 0.000
- Survival value caal (Candida albicans; single component at 0.02 mg/ml): 0.000
- Survival value caal (Candida albicans; single component at 0.05 mg/ml): 0.000
- Survival value caal (Candida albicans; single component at 0.1 mg/ml): 0.000
- Survival value caal (Candida albicans; single component at 0.8 mg/ml): 0.000

Compound: OCCc1ccccc1 [2-Phenyl ethanol, 2-phenyl ethanol]
- Concentration with cidal activity against Enterobacter aerogenes (Enterobacter aerogenes): 10 μl/ml
- Survival value enae (Enterobacter aerogenes; single component at 1 μl/ml): tntc
- Survival value enae (Enterobacter aerogenes; single component at 2.5 μl/ml): 0.092
- Survival value enae (Enterobacter aerogenes; single component at 4 μl/ml): 0.244
- Survival value enae (Enterobacter aerogenes; single component at 5 μl/ml): 0.440
- Survival value enae (Enterobacter aerogenes; single component at 10 μl/ml): 0.000
- Concentration required for cidal action [1]: greater than 2.5 μl/ml
- Concentration with cidal activity against Enterococcus faecalis (Enterococcus faecalis): > 10 μl/ml
- Survival value enfa (Enterococcus faecalis; single component at 1 μl/ml): tntc
- Survival value enfa (Enterococcus faecalis; single component at 1.8 μl/ml): tntc
- Survival value enfa (Enterococcus faecalis; single component at 2.5 μl/ml): tntc
- Survival value enfa (Enterococcus faecalis; single component at 4 μl/ml): tntc
- Survival value enfa (Enterococcus faecalis; single component at 5 μl/ml): tntc
- Survival value enfa (Enterococcus faecalis; single component at 10 μl/ml): 1.495
- Concentration with cidal activity against Escherichia coli (Escherichia coli): 4 μl/ml
- Survival value esco (Escherichia coli; single component at 1 μl/ml): tntc
- Survival value esco (Escherichia coli; single component at 1.8 μl/ml): tntc
- Survival value esco (Escherichia coli; single component at 2.5 μl/ml): 0.245
- Survival value esco (Escherichia coli; single component at 4 μl/ml): 0.000
- Survival value esco (Escherichia coli; single component at 10 μl/ml): 0.000
- Survival value klpn (Klebsiella pneumoniae; single component at 1.8 μl/ml): tntc
- Concentration with cidal activity against Pseudomonas aeruginosa (Pseudomonas aeruginosa): 5 μl/ml
- Survival value psae (Pseudomonas aeruginosa; single component at 1 μl/ml): 4.819
- Survival value psae (Pseudomonas aeruginosa; single component at 1.8 μl/ml): tntc
- Survival value psae (Pseudomonas aeruginosa; single component at 2.5 μl/ml): 0.199
- Survival value psae (Pseudomonas aeruginosa; single component at 4 μl/ml): 0.019
- Survival value psae (Pseudomonas aeruginosa; single component at 5 μl/ml): 0.000
- Survival value psae (Pseudomonas aeruginosa; single component at 10 μl/ml): 0.000
- Survival value prvu (Proteus vulgaris; single component at 1.8 μl/ml): tntc
- Concentration with cidal activity against Candida albicans (Candida albicans): 10 μl/ml
- Survival value caal (Candida albicans; single component at 1.8 μl/ml): tntc
- Survival value caal (Candida albicans; single component at 4 μl/ml): 1.081
- Survival value caal (Candida albicans; single component at 10 μl/ml): 0.000
